Where a name gives a salt, the structure may show the parent alone.
Experiments:
Type in all cases: cell-based
hH1 Na+ current = biological target: T1, hH1 Na+ current (Homo sapiens, UniProt Q14524); assay: Patch-clamp inhibition of cloned ion channel current in transfected HEK cells: Na; settings: peak hH1 Na+ current, -100 mV to -30 mV
T1 construct: expressed in transfected cells; host or cells: HEK cells, transient transfection, vector pCDNA3
Description: (§1) The relevant cloned ion channels (e.g. cardiac hH1, Kv1.4, Kv1.5, Kv4.2, Kv2.1, HERG etc.) are studied by transient transfection into HEK cells using the mammalian expression vector pCDNA3. Transfections for each channel type are carried out separately to allow individual study of the ion channel of interest. Cells expressing channel protein are detected by cotransfecting cells with the vector pHook-1 (Invitrogen, San Diego, Calif., USA). […] Equal concentrations of individual channel and pHook DNA are incubated with 10× concentration of lipofectAce in Modified Eagle's Medium (MEM, Canadian Life Technologies) and incubated with parent HEK cells plated on 25 mm culture dishes. After 3–4 hours the solution is replaced with a standard culture medium plus 20% fetal bovine serum and 1% antimycotic. Transfected cells are maintained at 37C in an air/5% CO2 incubator in 25 mm Petri dishes plated on glass coverslips for 24–48 hours to allow channel expression to occur. 20 min prior to experiments, cells are treated with beads coated with phOX. After 15 min, excess beads are […] off with cell culture medium and cells which had beads stuck to them are used for electrophysiological tests.
(§2) For whole-cell recording the control pipette filling solution contained (in mM): KCl, 130; EGTA, 5; MgCl2, 1; HEPES, 10; Na2ATP, 4; GTP, 0.1; and is adjusted to pH 7.2 with KOH. The control bath solution contained (in mM): NaCl, 135; KCI, 5; sodium acetate, 2.8; MgCl2, 1; HEPES, 10; CaCl2, 1; and is adjusted to pH 7.4 with NaOH. The test ion channel modulating compound is dissolved to 10 mM stock solutions in water and used at concentrations between 0.5 and 100 μM.
(§3) Coverslips containing cells are removed from the incubator before experiments and placed in a superfusion chamber (volume 250 μl) containing the control bath solution at 22C to 23C. All recordings are made via the variations of the patch-clamp technique, using an Axopatch 200A amplifier (Axon Instruments, CA). Patch electrodes are pulled from thin-walled borosilicate glass (World Precision Instruments; FL) on a horizontal micropipette puller, fire-polished, and filled with appropriate solutions. Electrodes had resistances of […] when filled with control filling solution. Analog capacity compensation is used in all whole cell measurements. In some experiments, leak subtraction is applied to data. Membrane potentials have not been corrected for any junctional potentials that arose between the pipette and bath solution. Data are filtered at 5 to 10 kHz before digitization and stored on a microcomputer for later analysis using the pClamp6 software (Axon Instruments, Foster City, Calif.). Due to the high level of expression of channel cDNA's in HEK cells, there is no need for signal averaging. The average cell capacitance is quite small, and the absence of ionic current at negative membrane potentials allowed faithful leak subtraction of data.
(§4) The concentration-response curves for changes in peak and steady-state current produced by the test compound are computer-fitted to the Hill equation: f=1−1/[1+([…])^n] [1]
(§5) where f is the fractional current (f=Idrug/Icontrol) at drug concentration [D]; IC50 is the concentration producing half-maximal inhibition and n is the Hill coefficient.
(§6) Compounds of the present invention may be evaluated by this method. […] Block is determined from the decrease in peak hH1 Na^+ current, or in steady-state Kv1.5 and integrated Kv4.2 current in the presence of drug. To record Na^+ current, cells are depolarized from the holding potential of −100 mV to a voltage of −30 mV for 10 ms to fully open and inactivate the channel. To record Kv1.5 and Kv4.2 current, cells are depolarized from the holding potential of −80 mV to a voltage of +60 mV for 200 ms to fully open the channel. Currents are recorded in the steady-state at a range of drug concentrations during stimulation every 4 s. […]

Kv1.5 = biological target: T2, Kv1.5 (Homo sapiens, UniProt P22460); assay: Patch-clamp inhibition of cloned ion channel current in transfected HEK cells: Kv1.5; settings: steady-state current, -80 mV to +60 mV
T2 construct: expressed in transfected cells; host or cells: HEK cells, transient transfection, vector pCDNA3
T2 sequence (P22460 whole entry): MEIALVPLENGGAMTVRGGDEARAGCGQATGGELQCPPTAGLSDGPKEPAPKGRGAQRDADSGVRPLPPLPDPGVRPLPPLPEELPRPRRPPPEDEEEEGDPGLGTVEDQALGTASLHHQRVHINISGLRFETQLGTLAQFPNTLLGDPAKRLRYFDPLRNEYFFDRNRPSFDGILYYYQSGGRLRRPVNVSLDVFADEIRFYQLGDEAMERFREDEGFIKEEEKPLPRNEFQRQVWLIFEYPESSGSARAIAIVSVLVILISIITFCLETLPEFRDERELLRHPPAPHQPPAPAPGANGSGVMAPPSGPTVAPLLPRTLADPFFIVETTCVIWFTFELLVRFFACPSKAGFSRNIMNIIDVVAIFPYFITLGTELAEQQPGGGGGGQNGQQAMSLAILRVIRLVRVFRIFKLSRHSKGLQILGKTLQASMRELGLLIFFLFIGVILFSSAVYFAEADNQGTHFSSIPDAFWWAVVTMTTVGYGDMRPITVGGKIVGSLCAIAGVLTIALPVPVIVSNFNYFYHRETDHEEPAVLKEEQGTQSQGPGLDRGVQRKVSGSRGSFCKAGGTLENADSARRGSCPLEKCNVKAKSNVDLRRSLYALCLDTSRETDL
Description: as §1, §2, §3, §4, §5, §6

Kv4.2 = biological target: T3, Kv4.2 (Homo sapiens, UniProt Q9NZV8); assay: Patch-clamp inhibition of cloned ion channel current in transfected HEK cells: Kv4.2; settings: integrated current, -80 mV to +60 mV
T3 construct: expressed in transfected cells; host or cells: HEK cells, transient transfection, vector pCDNA3
T3 sequence (Q9NZV8 1-630): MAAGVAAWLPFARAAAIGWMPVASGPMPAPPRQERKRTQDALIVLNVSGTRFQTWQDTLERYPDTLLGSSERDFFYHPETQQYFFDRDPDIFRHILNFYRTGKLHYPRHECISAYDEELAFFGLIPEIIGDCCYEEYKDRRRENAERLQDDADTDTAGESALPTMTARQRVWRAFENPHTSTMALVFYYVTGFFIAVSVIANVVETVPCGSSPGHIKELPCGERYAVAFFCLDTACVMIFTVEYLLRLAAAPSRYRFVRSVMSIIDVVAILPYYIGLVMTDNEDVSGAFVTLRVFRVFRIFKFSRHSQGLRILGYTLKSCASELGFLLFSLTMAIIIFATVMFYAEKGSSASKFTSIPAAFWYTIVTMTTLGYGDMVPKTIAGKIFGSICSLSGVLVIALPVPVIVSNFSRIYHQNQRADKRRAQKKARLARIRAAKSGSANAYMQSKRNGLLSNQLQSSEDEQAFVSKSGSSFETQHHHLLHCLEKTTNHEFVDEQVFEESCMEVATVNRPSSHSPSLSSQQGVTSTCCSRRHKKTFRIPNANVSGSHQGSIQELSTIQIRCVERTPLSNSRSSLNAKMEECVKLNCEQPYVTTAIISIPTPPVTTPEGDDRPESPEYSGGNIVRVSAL
Description: as §1, §2, §3, §4, §5, §6

HERG = biological target: T4, HERG (Homo sapiens, UniProt Q12809); assay: Patch-clamp inhibition of cloned ion channel current in transfected HEK cells: HERG; settings: whole-cell patch clamp
T4 construct: expressed in transfected cells; host or cells: HEK cells, transient transfection, vector pCDNA3
T4 sequence (Q12809 whole entry): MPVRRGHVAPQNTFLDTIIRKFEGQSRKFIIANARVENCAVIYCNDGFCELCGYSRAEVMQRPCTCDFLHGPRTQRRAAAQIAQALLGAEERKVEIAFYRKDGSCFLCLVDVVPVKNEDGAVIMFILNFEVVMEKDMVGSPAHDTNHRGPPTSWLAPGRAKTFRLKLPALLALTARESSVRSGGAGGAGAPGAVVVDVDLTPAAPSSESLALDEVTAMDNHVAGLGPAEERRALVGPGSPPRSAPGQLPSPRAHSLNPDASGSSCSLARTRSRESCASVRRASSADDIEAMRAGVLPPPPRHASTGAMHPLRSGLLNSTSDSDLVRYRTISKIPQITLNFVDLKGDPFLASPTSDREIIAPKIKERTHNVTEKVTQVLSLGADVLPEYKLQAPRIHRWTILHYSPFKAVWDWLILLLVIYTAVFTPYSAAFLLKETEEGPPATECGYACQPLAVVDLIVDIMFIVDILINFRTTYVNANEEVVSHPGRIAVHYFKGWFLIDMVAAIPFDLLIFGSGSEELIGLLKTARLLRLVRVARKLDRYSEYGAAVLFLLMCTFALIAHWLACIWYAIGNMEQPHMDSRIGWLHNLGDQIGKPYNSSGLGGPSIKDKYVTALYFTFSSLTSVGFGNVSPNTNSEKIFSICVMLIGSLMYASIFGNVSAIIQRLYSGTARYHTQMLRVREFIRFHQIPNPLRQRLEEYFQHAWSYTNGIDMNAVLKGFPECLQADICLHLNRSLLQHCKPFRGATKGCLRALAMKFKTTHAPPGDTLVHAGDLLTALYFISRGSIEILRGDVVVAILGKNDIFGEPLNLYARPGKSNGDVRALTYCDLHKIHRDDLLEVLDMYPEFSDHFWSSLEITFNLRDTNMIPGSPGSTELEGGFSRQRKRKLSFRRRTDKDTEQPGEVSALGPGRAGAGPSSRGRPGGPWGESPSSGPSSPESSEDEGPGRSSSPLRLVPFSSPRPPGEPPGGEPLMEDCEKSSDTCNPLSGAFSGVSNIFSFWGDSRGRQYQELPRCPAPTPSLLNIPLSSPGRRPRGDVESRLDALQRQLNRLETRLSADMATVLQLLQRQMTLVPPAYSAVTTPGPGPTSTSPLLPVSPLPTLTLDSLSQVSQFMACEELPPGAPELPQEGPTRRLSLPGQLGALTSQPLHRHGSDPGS
Description: as §1, §2, §3, §4, §5, §6

T1 sequence (Q14524 whole entry): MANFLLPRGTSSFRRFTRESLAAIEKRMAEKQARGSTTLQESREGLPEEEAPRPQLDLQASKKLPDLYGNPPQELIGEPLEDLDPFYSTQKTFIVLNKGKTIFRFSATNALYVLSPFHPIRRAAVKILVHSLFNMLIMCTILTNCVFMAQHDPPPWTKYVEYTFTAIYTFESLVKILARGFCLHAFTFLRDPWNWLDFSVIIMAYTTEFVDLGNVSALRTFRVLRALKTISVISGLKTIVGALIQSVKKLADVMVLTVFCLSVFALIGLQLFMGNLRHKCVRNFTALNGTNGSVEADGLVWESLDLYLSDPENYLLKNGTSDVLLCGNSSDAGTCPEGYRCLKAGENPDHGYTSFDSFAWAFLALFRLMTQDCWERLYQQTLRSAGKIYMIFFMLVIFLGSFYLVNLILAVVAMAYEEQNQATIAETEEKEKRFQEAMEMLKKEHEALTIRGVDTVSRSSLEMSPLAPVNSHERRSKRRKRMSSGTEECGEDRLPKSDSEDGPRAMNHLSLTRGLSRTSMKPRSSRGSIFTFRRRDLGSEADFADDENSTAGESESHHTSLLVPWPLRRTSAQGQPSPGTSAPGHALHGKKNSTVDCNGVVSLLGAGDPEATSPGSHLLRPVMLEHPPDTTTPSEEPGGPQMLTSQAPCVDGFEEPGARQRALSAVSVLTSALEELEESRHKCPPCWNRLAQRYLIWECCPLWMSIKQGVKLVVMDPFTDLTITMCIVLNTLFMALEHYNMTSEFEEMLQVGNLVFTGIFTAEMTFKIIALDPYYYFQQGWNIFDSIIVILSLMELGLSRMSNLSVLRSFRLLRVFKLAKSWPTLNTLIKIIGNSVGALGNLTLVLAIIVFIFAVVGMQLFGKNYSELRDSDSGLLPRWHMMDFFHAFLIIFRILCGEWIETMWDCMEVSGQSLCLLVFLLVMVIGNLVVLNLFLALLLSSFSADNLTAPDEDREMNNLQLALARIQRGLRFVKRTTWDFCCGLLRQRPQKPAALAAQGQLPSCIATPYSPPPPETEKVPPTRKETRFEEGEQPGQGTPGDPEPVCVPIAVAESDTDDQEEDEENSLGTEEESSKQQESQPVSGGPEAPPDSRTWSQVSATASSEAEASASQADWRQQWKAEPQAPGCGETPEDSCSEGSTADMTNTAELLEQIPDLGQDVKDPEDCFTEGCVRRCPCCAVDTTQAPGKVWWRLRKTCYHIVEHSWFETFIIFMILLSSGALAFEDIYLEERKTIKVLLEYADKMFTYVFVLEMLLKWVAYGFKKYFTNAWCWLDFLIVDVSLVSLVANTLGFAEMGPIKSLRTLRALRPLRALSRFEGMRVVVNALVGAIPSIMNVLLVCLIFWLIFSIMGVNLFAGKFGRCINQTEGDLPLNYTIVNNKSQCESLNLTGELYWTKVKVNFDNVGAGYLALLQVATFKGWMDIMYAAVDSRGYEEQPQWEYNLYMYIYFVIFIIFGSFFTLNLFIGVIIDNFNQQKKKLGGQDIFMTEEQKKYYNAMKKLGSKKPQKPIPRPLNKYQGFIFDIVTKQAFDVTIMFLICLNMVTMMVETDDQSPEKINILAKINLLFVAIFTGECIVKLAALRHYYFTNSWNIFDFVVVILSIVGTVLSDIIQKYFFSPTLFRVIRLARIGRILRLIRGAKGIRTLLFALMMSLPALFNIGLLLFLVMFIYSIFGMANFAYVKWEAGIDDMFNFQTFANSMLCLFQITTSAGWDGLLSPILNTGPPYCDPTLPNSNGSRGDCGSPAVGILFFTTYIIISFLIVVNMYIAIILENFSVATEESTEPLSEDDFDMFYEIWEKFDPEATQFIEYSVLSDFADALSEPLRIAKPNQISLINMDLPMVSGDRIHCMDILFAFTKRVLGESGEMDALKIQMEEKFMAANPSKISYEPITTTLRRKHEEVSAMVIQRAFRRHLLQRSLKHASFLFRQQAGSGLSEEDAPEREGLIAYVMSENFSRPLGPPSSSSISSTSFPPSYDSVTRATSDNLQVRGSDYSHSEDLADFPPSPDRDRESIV

Compound	IC50 (hH1 Na+ current)	IC50 (Kv1.5)	IC50 (Kv4.2)	IC50 (HERG)
CCc1cn2cccc(OCCCc3ccc(Cl)cc3Cl)c2n1 [Compound 4, 8-[3-(2,4-DICHLOROPHENYL)PROPOXY]-2-ETHYLIMIDAZO[1,2-α]PYRIDINE MONOHYDROCHLORIDE]	1 µM	0.1 µM	0.8 µM	0.02 µM
Clc1ccc(CCCOc2cccn3cc(-c4ccccc4)nc23)c(Cl)c1 [Compound 5, 8-[3-(2,4-DICHLOROPHENYL)PROPOXY]-2-PHENYLIMIDAZO[1,2-α]PYRIDINE MONOHYDROCHLORIDE]	239 µM	170 µM	71 µM	0.9 µM
Cc1cn2cccc(OCCCc3c(Cl)cccc3Cl)c2n1 [Compound 6, 8-[3-(2,6-DICHLOROPHENYL)PROPOXY]-2-Methylimidazo[1,2-α]PYRIDINE MONOHYDROCHLORIDE]	0.3 µM	0.8 µM	0.9 µM	0.3 µM
Cc1cn2cccc(OCc3ccccc3C(F)(F)F)c2n1 [Compound 7, 2-METHYL-8-[2-(TRIFLUOROMETHYL)BENZYLOXY]IMIDAZO[1,2-α]PYRIDINE MONOHYDROCHLORIDE]	15 µM	5 µM	10 µM	0.8 µM
Cc1cn2cccc(OCc3ccc(Cl)cc3Cl)c2n1 [Compound 8, 8-[2,4-DICHLOROBENZYLOXY]-2-METHYLIMIDAZO[1,2-α]PYRIDINE MONOHYDROCHLORIDE]	1210 µM	0.8 µM	11 µM	0.4 µM
Cc1cn2cccc(OCCCC3CCCCC3)c2n1 [Compound 9, 8-[(3-CYCLOHEXYL)PROPOXY]-2-METHYLIMIDAZO[1,2-α]PYRIDINE MONOHYDROCHLORIDE]	14 µM	1 µM	3 µM	0.05 µM
Cc1cn2cccc(OCCCCCc3ccccc3)c2n1 [Compound 10, 2-METHYL-8-[5-PHENYL-1-PENTOXY]IMIDAZO[1,2-α]PYRIDINE MONOHYDROCHLORIDE]	12 µM	0.8 µM	1 µM	0.1 µM
Cc1cn2cccc(OCCCOCc3ccccc3)c2n1 [Compound 11, 8-[3-BENZYLOXY-1-PROPOXY]-2-METHYLIMIDAZO[1,2-α]PYRIDINE MONOHYDROCHLORIDE]	152 µM	11 µM	14 µM	0.08 µM
Cc1cn2cccc(OCCC(c3ccccc3)c3ccccc3)c2n1 [Compound 12, 8-[3,3-DIPHENYL-1-PROPOXY]-2-METHYLIMIDAZO[1,2-α]PYRIDINE MONOHYDROCHLORIDE]	3 µM	0.6 µM	1 µM	0.004 µM
Cc1cn2cccc(OCC3(c4ccccc4)CC3)c2n1 [Compound 13, 2-METHYL-8-[(1-PHENYL-CYCLOPROPYL)METHOXY]IMIDAZO[1,2-α]PYRIDINE MONOHYDROCHLORIDE]	8 µM	0.7 µM	3 µM	0.4 µM
FC(F)(F)c1cn2cccc(OCCCc3ccc(Cl)cc3Cl)c2n1 [Compound 15, 8-[3-(2,4-DICHLOROPHENYL)PROPOXY]-2-(TRIFLUOROMETHYL)IMIDAZO[1,2-α]PYRIDINE MONOHYDROCHLORIDE]	8 µM	0.1 µM	0.6 µM	1 µM
Cc1nc2c(OCC3(c4ccccc4)CC3)cccn2c1CO [Compound 31, {2-METHYL-8-[(1-PHENYLCYCLOPROPYL)METHOXY]IMIDAZO[1,2-α]PYRIDIN-3-yl}-METHANOL MONOHYDROCHLORIDE]	–	4 µM	–	3 µM
Cc1cn2c(C)ccc(OCCCc3ccccc3)c2n1 [Compound 32, 2,5-DIMETHYL-8-(3-PHENYLPROPOXY)IMIDAZO[1,2-α]PYRIDINE MONOHYDROCHLORIDE]	–	4 µM	–	0.3 µM
Cc1cn2c(C)ccc(OCC3(c4ccccc4)CC3)c2n1 [Compound 33, 2,5-DIMETHYL-8-[(1-PHENYL-CYCLOPROPYL)METHOXY]IMIDAZO[1,2-α]PYRIDINE MONOHYDROCHLORIDE]	–	3 µM	–	0.9 µM
Cc1cn2c(C)ccc(OCCCc3ccc(Cl)cc3Cl)c2n1 [Compound 34, 8-[3-(2,4-DICHLOROPHENYL)PROPOXY]-2,5-DIMETHYLIMIDAZO[1,2-α]PYRIDINE MONOHYDROCHLORIDE]	–	1 µM	–	0.04 µM
Cc1nc2c(OCCCc3ccc(Cl)cc3Cl)cccn2c1C(=O)O [Compound 37, SODIUM 8-[3-(2,4-DICHLOROPHENYL)PROPOXY]-2-METHYLIMIDAZO[1,2-α]PYRIDINE-3-CARBOXYLATE]	–	18 µM	–	4 µM
CC(C)c1cn2cccc(OCC3(c4ccccc4)CC3)c2n1 [Compound 38, 2-ISOPROPYL-8-[(1-PHENYL-CYCLOPROPYL)METHOXY]IMIDAZO[1,2-α]PYRIDINE MONOHYDROCHLORIDE]	–	0.4 µM	–	1 µM
Cc1nc2c(OCC3(c4ccccc4)CC3)cccn2c1Cl [Compound 39, 3-CHLORO-2-METHYL-8-[(1-PHENYL-CYCLOPROPYL)METHOXY]IMIDAZO[1,2-α]PYRIDINE MONOHYDROCHLORIDE]	–	0.7 µM	–	3 µM
Cc1nc2c(OCC3(c4ccccc4)CC3)cccn2c1CN(C)C [Compound 40, 3-(DIMETHYLAMINO)METHYL-2-METHYL-8-[(1-PHENYL-CYCLOPROPYL)METHOXY]-IMIDAZO[1,2-α]PYRIDINE DIHYDROCHLORIDE]	–	23 µM	–	1 µM
CC(=O)Nc1c(C)nc2c(OCCCc3ccc(Cl)cc3Cl)cccn12 [Compound 41, 3-ACETAMIDO-8-[3-(2,4-DICHLOROPHENYL)PROPOXY]-2-METHYLIMIDAZO[1,2-α]PYRIDINE MONOHYDROCHLORIDE]	–	5 µM	–	0.6 µM
Cc1nc2c(OCC3(c4ccccc4)CC3)cccn2c1N [Compound 43, 3-AMINO-2-METHYL-8-[(1-PHENYL-CYCLOPROPYL)METHOXy]IMIDAZO[1,2-α]PYRIDINE MONOHYDROCHLORIDE]	–	1.6 µM	–	0.7 µM
